Values joined by “and” are separate entries in the source; they are usually repeats but may differ in a detail not shown here. Identical values can stand only once. Like-named read-outs stand apart in the source and are kept apart here. Ends that are not written are not given here.
How the values were obtained:
[1] = Electronic tongue analysis (Taste-Sensing System SA 402B); parameters: unit not given here; details: reference solution 30 mM KCl + 0.3 mM tartaric acid as baseline, first measurement excluded; for Umami: sensor AAE; for Umami / Bitter / Sweet: detection threshold 0, room temperature; for Umami / Bitter / Sour / Salty: four replicates; for Sour: detection threshold -13, room temperature; for Salty: detection threshold -6, room temperature; for Sweet: measured five times
Summary of the method: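 Room-temperature electronic-tongue readings with five taste probes, calibrated against a reference of 30 mM KCl and 0.3 mM tartaric acid. Samples at 0.1 mg/mL and 1.0 mg/mL were measured four times, sweetness five times, and the first run was dropped. Detection cut-offs were sour −13, salty −6, others 0.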

[2] = tested on: red blood cells from 6-week-old BALB/c mice (mRBCs); assay: Hemolysis assay; type: cell-based, mouse; details: mean of Data1-3; 100 μM peptide, 1.5 × 10^8 cells/mL mRBCs, 37°C, 60 min, absorbance 490 nm; PBS 0% and 1% Triton X-100 100% controls
Protocol: The hemolytic activity of synthetic peptides was evaluated using red blood cells from 6-week-old BALB/c mice (mRBCs). Freshly isolated mRBCs were washed three times with PBS buffer (8000 rpm, 2 min per wash) to prepare the mRBC suspension. Equal volumes (70 μL) of 200 μM peptide solutions and mRBC suspension were mixed to achieve final concentrations of 100 μM peptide and 1.5 × 10^8 cells/mL mRBCs in the reaction system. After incubation with shaking at 37°C for 60 min, samples were centrifuged at 10000 rpm for 5 min, and hemoglobin release was assessed by measuring the absorbance of the supernatant at 490 nm. PBS and 1% Triton X-100 treatments served as 0% and 100% hemolysis controls, respectively. A complete dataset of hemolytic activity measurements is documented in S4 Data.

[3] = tested on: human pancreatic ductal epithelial cells (HPNE); assay: Cell viability assessment (CCK-8), HPNE; details: CCK-8, mean of Data1-3 (n = 3)
Protocol: (§1) The cytotoxicity of 73 synthetic peptides was evaluated using four human cell lines: human pancreatic ductal epithelial cells (HPNE), human embryonic kidney cells (HEK293T), human umbilical vein endothelial cells (HUVEC), and human bronchial epithelial cells (BEAS-2B). When cell density reached 70% confluence, the complete culture medium was replaced with serum-free maintenance medium, and peptides were added at a final concentration of 100 μM for 36 h. Control groups received only serum-free maintenance medium without peptides. Cell proliferation was assessed using the CCK-8 assay kit (Solarbio, CA1210) according to the manufacturer’s instructions.

[4] = tested on: human umbilical vein endothelial cells (HUVEC); assay: Cell viability assessment (CCK-8), HUVEC; details: CCK-8, mean of Data1-3 (n = 3)
[5] = tested on: human bronchial epithelial cells (BEAS-2B); assay: Cell viability assessment (CCK-8), BEAS-2B; details: BEAS-2B cells, CCK-8, mean of Data1-3 (n = 3)
[6] = tested on: human embryonic kidney cells (HEK293T); assay: Cell viability assessment (CCK-8), HEK293T; details: CCK-8, mean of Data1-3 (n = 3)
[7] = known from earlier studies; cited from earlier work
Text: To address these experimental challenges, various computational and artificial intelligence-based approaches for taste peptide identification have emerged. Most reported methods focus on predicting single taste properties, such as BERT4Bitter and iBitter-SCM [42] for bitter peptide identification, while iUmami-SCM [43], Umami-MRNN [[44], iUmami-DRLF [45], and Umami-gcForest are dedicated to umami peptide prediction. Additionally, a few models like Umami_YYDS [35] have been reported to perform binary classification for umami and bitter tastes. However, current methodologie ...

[8] = tested on: human bronchial epithelial cells (BEAS-2B)
[9] = tested on: human embryonic kidney cells (HEK293T)
[10] = tested on: human pancreatic ductal epithelial cells (HPNE)
Protocol: as §1

[11] = tested on: human umbilical vein endothelial cells (HUVEC)

| Substance | Umami ([1]; peptide 0.1 mg/mL) | Umami ([1]; peptide 1 mg/mL) | Bitter ([1]; sensor C00, peptide 0.1 mg/mL) | Bitter ([1]; sensor C00, peptide 1 mg/mL) | Sour ([1]; sensor CA0, peptide 0.1 mg/mL) | Sour ([1]; sensor CA0, peptide 1 mg/mL) | Salty ([1]; sensor CT0, peptide 0.1 mg/mL) | Salty ([1]; sensor CT0, peptide 1 mg/mL) | Sweet ([1]; sensor GL1, peptide 0.1 mg/mL) | Sweet ([1]; sensor GL1, peptide 1 mg/mL) | Average cell viability, BEAS-2B [8] | Cell viability, BEAS-2B, Data1 [8] | Cell viability, BEAS-2B, Data2 [8] | Cell viability, BEAS-2B, Data3 [8] | Average cell viability, HEK293T [9] | Cell viability, HEK293T, Data1 [9] | Cell viability, HEK293T, Data2 [9] | Cell viability, HEK293T, Data3 [9] | Average cell viability, HPNE [10] | Cell viability, HPNE, Data1 [10] | further results |
| --- | --- | --- | --- | --- | --- | --- | --- | --- | --- | --- | --- | --- | --- | --- | --- | --- | --- | --- | --- | --- | --- |
| EPDDPDD [TaPep27] | 0.54 | -6.01 | 7.42 | 3.79 | -0.70 | 14.83 | -22.39 | 8.93 | 3.39 | -6.25 |  |  |  |  |  |  |  |  |  |  | Average hemolysis [2]: 1.02%; Average cell viability, HPNE [3]: 91.58; Average cell viability, HUVEC [4]: 94.52; Average cell viability, BEAS-2B [5]: 105.85; Average cell viability, HEK293T [6]: 98.49 |
| KGDEESLA |  |  |  |  |  |  |  |  |  |  |  |  |  |  |  |  |  |  |  |  | taste characteristics [7]: both umami and bitter characteristics |
| VPDELN [TaPep23] | 1.53 | -4.39 | 7.18 | 3.47 | -3.15 | 11.00 | -22.67 | 6.69 | 5.26 | -4.58 | 102.53 | 109.87 | 92.32 | 105.38 | 90.54 | 91.61 | 84.89 | 95.11 | 99.63 | 105.82 | Cell viability, HPNE, Data2 [10]: 109.52; Cell viability, HPNE, Data3 [10]: 83.56; Average cell viability, HUVEC [11]: 97.76; Cell viability, HUVEC, Data1 [11]: 98.19; Cell viability, HUVEC, Data2 [11]: 95.72; Cell viability, HUVEC, Data3 [11]: 99.39 |
| YAGNAP [TaPep10] | 3.61 | -3.37 | 6.97 | bitterness suppression and -0.80 | -8.60 | 8.97 | -20.44 | 14.02 | 11.07 | -4.53 | 98.84 | 101.69 | 95.01 | 99.80 | 99.40 | 94.83 | 102.87 | 100.50 | 95.54 | 97.18 | Cell viability, HPNE, Data2 [10]: 94.47; Cell viability, HPNE, Data3 [10]: 94.97; Average cell viability, HUVEC [11]: 102.47; Cell viability, HUVEC, Data1 [11]: 99.31; Cell viability, HUVEC, Data2 [11]: 104.50; Cell viability, HUVEC, Data3 [11]: 103.62 |
| YDGTPLN [TaPep11] | 2.75 | -2.91 | 7.10 | 3.24 | -5.95 | 9.08 | -21.79 | 6.18 | 9.69 | -5.23 | 102.96 | 102.59 | 99.80 | 106.48 | 102.37 | 107.03 | 95.68 | 104.38 | 100.63 | 98.34 | Cell viability, HPNE, Data2 [10]: 113.51; Cell viability, HPNE, Data3 [10]: 90.05; Average cell viability, HUVEC [11]: 112.96; Cell viability, HUVEC, Data1 [11]: 111.12; Cell viability, HUVEC, Data2 [11]: 113.36; Cell viability, HUVEC, Data3 [11]: 114.40 |
| YGRGV [TaPep12] | 3.01 | -2.86 | 8.03 | 0.75 | -6.74 | 6.59 | -17.83 | 7.54 | 7.49 | -7.92 | 99.57 | 102.99 | 93.52 | 102.19 | 102.93 | 99.46 | 109.02 | 100.32 | 102.90 | 110.82 | Average hemolysis [2]: 0.43%; Cell viability, HPNE, Data2 [10]: 91.75; Cell viability, HPNE, Data3 [10]: 106.12; Average cell viability, HUVEC [11]: 94.89; Cell viability, HUVEC, Data1 [11]: 90.77; Cell viability, HUVEC, Data2 [11]: 98.75; Cell viability, HUVEC, Data3 [11]: 95.16 |
| YKYHES [TaPep13] | 1.81 | -4.92 | 7.46 | -0.78 | -3.77 | 12.34 | -15.97 | 15.30 | 3.50 | -4.65 |  |  |  |  |  |  |  |  |  |  | Average hemolysis [2]: 1.05%; Average cell viability, HPNE [3]: 99.43; Average cell viability, HUVEC [4]: 104.44; Average cell viability, BEAS-2B [5]: 101.89; Average cell viability, HEK293T [6]: 95.55 |
| YQAENKH [TaPep14] | 3.07 | -3.87 | 7.83 | 0.38 | -6.58 | 9.86 | -18.09 | 13.64 | 7.88 | -4.10 | 116.78 | 112.46 | 118.94 | 118.94 | 98.23 | 95.02 | 96.25 | 103.44 | 98.70 | 93.34 | Cell viability, HPNE, Data2 [10]: 103.13; Cell viability, HPNE, Data3 [10]: 99.63; Average cell viability, HUVEC [11]: 95.42; Cell viability, HUVEC, Data1 [11]: 102.42; Cell viability, HUVEC, Data2 [11]: 90.29; Cell viability, HUVEC, Data3 [11]: 93.56 |
